How the values were obtained:
[1] = molecular target: T1, M1 (rise in blood pressure by McN-A-343) (Rattus norvegicus, UniProt P08482); assay: M1/M2 selectivity in the rat: inhibition of McN-A-343 blood pressure increase (M1); assay type: in vivo, male THOM rats; details: iv, 5 min, i.v., 50% reduction in blood pressure rise by 0.3 mg/kg McN-A-343, read-out: M1 activity (rat) ED50
T1 construct: from tissue
T1 sequence (P08482 1-460): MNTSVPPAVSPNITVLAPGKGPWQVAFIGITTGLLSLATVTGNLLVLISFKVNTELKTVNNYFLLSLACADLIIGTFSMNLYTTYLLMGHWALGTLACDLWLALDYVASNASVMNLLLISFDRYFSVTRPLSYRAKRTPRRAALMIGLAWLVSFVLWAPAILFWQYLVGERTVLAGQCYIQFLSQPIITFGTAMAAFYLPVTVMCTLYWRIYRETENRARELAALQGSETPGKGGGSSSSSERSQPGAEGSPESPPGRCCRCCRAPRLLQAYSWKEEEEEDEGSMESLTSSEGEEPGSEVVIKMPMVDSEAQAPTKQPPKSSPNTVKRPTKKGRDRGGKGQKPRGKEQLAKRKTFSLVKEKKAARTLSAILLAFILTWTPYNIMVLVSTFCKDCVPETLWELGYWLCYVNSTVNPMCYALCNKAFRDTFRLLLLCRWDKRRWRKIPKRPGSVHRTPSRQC

[2] = test system: muscarinic receptors, bronchi; assay: Receptor bonding test in vivo, bronchi (3H-NMS); design: species or system female rats; details: in vivo binding, i.v., rat, 113 ng/kg 3H-NMS; 30 min
Method: (§1) For these experiments, female rats with a body weight of about 200 g were used. Before the start of the test the animals were anaesthetised with a dosage of 1.25 g/kg of urethane. The animals were each given the prescribed dosage of test substance by intravenous injection. After 15 minutes, 113 ng/kg of ^3 H-N-methylscopolamine (^3 H-NMS) were administered by the same route. After another 15 minutes the animals were killed and the heart, bronchi and lachrymal glands were removed. These organs were dissolved in Soluene R and the radioactivity was determined. The measurements were assumed to be total bonding. […] ID50 values were determined for the individual organs using these tests.

[3] = molecular target: T2, muscarinic receptors, heart atrium (Rattus norvegicus, UniProt P10980); assay: Receptor bonding test in vivo, heart atrium (3H-NMS); design: species or system female rats; details: for potency in the heart (in words): Table V, atrium/ventricle, vs comparison substances; for ED50: iv, 0.5 h, i.v., 113 ng/kg 3H-NMS, read-out: ID50 Heart Atrium
T2 construct: from tissue; host or cells: heart (atrium, ventricle) of female rats, labelled in vivo
T2 sequence (P10980 1-466): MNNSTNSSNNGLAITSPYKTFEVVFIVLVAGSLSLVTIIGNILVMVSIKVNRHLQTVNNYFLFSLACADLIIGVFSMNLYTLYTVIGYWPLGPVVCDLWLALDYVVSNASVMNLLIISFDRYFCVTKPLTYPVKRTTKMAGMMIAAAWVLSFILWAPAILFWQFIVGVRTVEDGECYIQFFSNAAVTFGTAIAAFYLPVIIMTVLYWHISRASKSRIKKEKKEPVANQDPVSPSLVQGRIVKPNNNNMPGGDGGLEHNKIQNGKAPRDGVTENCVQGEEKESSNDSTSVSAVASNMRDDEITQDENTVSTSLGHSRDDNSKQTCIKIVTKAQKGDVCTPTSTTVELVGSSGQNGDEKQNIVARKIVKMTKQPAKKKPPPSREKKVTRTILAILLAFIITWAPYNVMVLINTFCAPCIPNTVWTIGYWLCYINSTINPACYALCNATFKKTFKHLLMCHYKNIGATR
Method: as §1

[4] = molecular target: T3, muscarinic receptors, heart ventricle (Rattus norvegicus, UniProt P10980); assay: Receptor bonding test in vivo, heart ventricle (3H-NMS); design: species or system female rats; details: iv, 0.5 h, in vivo binding, i.v., 113 ng/kg 3H-NMS, read-out: ID50 Heart Ventricle
T3 construct: the heart, bronchi and lachrymal glands were removed; from tissue; host or cells: heart (atrium, ventricle) of female rats, labelled in vivo
T3 sequence (P10980 1-466): T2 sequence (P10980 1-466)
Method: as §1

[5] = molecular target: T4, muscarinic receptors, heart (Rattus norvegicus, UniProt P10980); assay: Receptor bonding test in vitro, heart (displacement of 3H-N-methylscopolamine); assay type: binding, Sprague-Dawley rats; details: for IC50: 0.3 nmolar 3H-NMS, 30° C., 45 min, heart
T4 construct: After removal of the heart and submandibular gland; from tissue; host or cells: whole heart of male Sprague-Dawley rats, homogenate
T4 sequence (P10980 1-466): T2 sequence (P10980 1-466)

M2 (vagal bradycardia) = molecular target: T5, M2 (vagal bradycardia) (Rattus norvegicus, UniProt P10980); assay: M1/M2 selectivity in the rat: inhibition of vagally stimulated bradycardia (M2); assay type: in vivo, male THOM rats; details: iv, 5 min, i.v., 50% reduction in vagal bradycardia, read-out: M2 activity (rat) ED50
T5 construct: The bradycardia produced by vagus stimulation; from tissue; host or cells: whole animal (male THOM rats), heart
T5 sequence (P10980 1-466): T2 sequence (P10980 1-466)
Method: The method used was described by Hammer and Giachetti (Life Sciences 31, 2991-2998 (1982)). 5 minutes after intravenous injection of increasing doses of the substance, either the right vagus was electrically stimulated (frequency: 25 Hz; pulse width: 2 ms; duration of stimulus: 30 s; number of volts: supramaximal) or 0.3 mg/kg of McN-A-343 was injected intravenously into male THOM rats. The bradycardia produced by vagus stimulation and the increase in blood pressure produced by McN-A-343 were measured.

[6] = test system: muscarinic receptors of the atrium; assay: Dissociation constants (KB) on spontaneously beating right atrium, methacholine antagonism; design: species or system guinea pig; details: Table IV
Method: Dissociation constants (KB values) were determined in vitro on the guinea pig ileum and spontaneously beating atrium. The ileum was removed and incubated in Krebs-Henseleit solution in an organ bath. Contractions were produced by means of increasing concentrations of methacholine (M) so that a full concentration-activity curve could be plotted. Then M was washed out, the test substance was added and kept in contact for 30 minutes and again a concentration-activity curve was plotted with M. The dissociation constant was calculated according to Arunlakshana and Schild (Brit. J. Pharmacol. 14, 48, 1959) from the dosage ratio (DR), i.e. the extent of displacement of the concentration-activity curve.
In the isolated, spontaneously beating right atrium M reduced the heart rate as a function of the concentration. This effect was stopped by the addition of an antimuscarinic. Dissociation constants for the muscarinic receptors of the atrium were obtained in the same way as described above. A comparison of the dissociation constants measured in the two different tissues made it possible to identify cardioselective substances.

salivation = assay: Salivation-inhibiting effect on the rat (pilocarpine); assay type: in vivo, male THOM rats; details: for ED50: Rattus norvegicus, iv, pilocarpine 2 mg/kg s.c., 50% reduction of saliva volume, read-out: Salivation inhibition (rat) ED50
Method: The secretion of saliva was triggered by subcutaneous administration of 2 mg/kg of pilocarpine. The saliva was soaked up with blotting paper and the area occupied by the saliva was determined by planimetry every 5 minutes. The dosage of substance which reduced the volume of saliva by 50% was determined graphically.

ED50 ([3]; in vivo binding, rat) [mg/kg] | ED50 [4] [mg/kg] | IC50 [5] [nM] | ED50 (M2 (vagal bradycardia)) [mg/kg] | Ratio of ID50 lachrymal gland to ID50 atrium ([3]; in vivo binding, rat, 30 min) | Selectivity factor: Ratio IC50 submandibular gland to IC50 heart [5] | SMILES | ED50 [1] [mg/kg] | ID50 Bronchi [2] [mg/kg] | potency in the heart (in words) [3] | efficacy compared with X and Y (in words) [6] | ED50 (salivation) [mg/kg] | Ratio of salivation inhibition to M2 activity (salivation; rat, i.v. ED50 values)
0.2 | 0.15 | 20 | 0.019 |  |  | CCCN(CCC)CC1CCCCN1CCNC(=O)N1c2ccccc2C(=O)Nc2cccnc21 (stereo not drawn) [Substance A, 5,11-dihydro-11-[[[2-[2-[(dipropylamino)methyl]-piperidin-1-yl]ethyl]amino]carbonyl]-6H-pyrido[2,3-b][1,4]benzodiazepin-6-one] | 0.562 | 0.7 | decisive improvement in potency compared with substances Y and Y in the heart | significantly more effective than X and Y | 0.458 | 
0.025 | 0.006 | 3 | 0.008 | > 40 | 5 | CCN(CC)CC1CCCCN1CCNC(=O)N1c2ccccc2NC(=O)c2csc(C)c21 (stereo not drawn) [Substance B, 4-[[[2-[2-[(diethylamino)methyl]-piperidin-1-yl]ethyl]amino]carbonyl]-4,9-dihydro-3-methyl-10H-thieno[3,4-b][1,5]benzodiazepin-10-one] | 0.033 | 0.15 | decisive improvement in potency compared with substances Y and Y in the heart | significantly more effective than X and Y | 0.078 | 9.75
0.2 | 0.09 | 30 | 0.058 |  |  | CCN(CC)CC1CCCCN1CCNC(=O)N1c2cc(Cl)ccc2C(=O)Nc2cccnc21 (stereo not drawn) [Substance C, 9-chloro-11-[[[2-[2-[(diethylamino)methyl]-piperidin-1-yl]ethyl]amino]carbonyl]-5,11-dihydro-6H-pyrido[2,3-b][1,4]benzodiazepin-6-one] | 0.36 | 3.0 | decisive improvement in potency compared with substances Y and Y in the heart | significantly more effective than X and Y | 1.4 | 

From patent US4873236A, “Condensed diazepinones, processes for preparing them and pharmaceutical compositions containing these compounds” (Dr. Karl Thomae GmbH, priority 1986, dated 1989)
